#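 Briefly, cells in 96-well plates were exposed to five compound concentrations for 48 h, and endpoints were estimated by linear interpolation. GI50 = concentration required for 50% inhibition of growth.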 Activity calls are given as the source filed them. Rule as the data show it: active = GI50 up to about 1.1 µM and inactive = higher.
# Legend:
# Test in all cases: growth of human tumour cells (NCI), 48 h
# SK-MEL-28 = test system: SK-MEL-28
# M14 = test system: M14
# HCC 2998 = test system: HCC 2998
# CAKI-1 = test system: CAKI-1
# HL-60 = test system: HL-60
# SN12C = test system: SN12C
# K562 = test system: K562
# MDA-N = test system: MDA-N
# OVCAR-3 = test system: OVCAR-3
# SF-295 = test system: SF-295
# 786-0 = test system: 786-0
# COLO 205 = test system: COLO 205
# U-251 = test system: U-251
# NCI-H522 = test system: NCI-H522
# UACC-62 = test system: UACC-62
# MOLT-4 = test system: MOLT-4
# HCT-15 = test system: HCT-15
# OVCAR-4 = test system: OVCAR-4
# A498 = test system: A498
# NCI-H23 = test system: NCI-H23
SMILES,GI50 (SK-MEL-28),GI50 (M14),GI50 (HCC 2998),GI50 (CAKI-1),GI50 (HL-60),GI50 (SN12C),GI50 (K562),GI50 (MDA-N),GI50 (OVCAR-3),GI50 (SF-295),GI50 (786-0),GI50 (COLO 205),GI50 (U-251),GI50 (NCI-H522),GI50 (UACC-62),GI50 (MOLT-4),GI50 (HCT-15),GI50 (OVCAR-4),GI50 (A498),GI50 (NCI-H23)
COc1ccc(C2=NN(C(=N)S)C(c3ccccc3)C2)cc1 (stereo not given),91 µM (inactive),41 µM (inactive),44.8 µM (inactive),40.6 µM (inactive),18.2 µM (inactive),39.3 µM (inactive),30.1 µM (inactive),27.9 µM (inactive),35.6 µM (inactive),30.3 µM (inactive),38.3 µM (inactive),25.8 µM (inactive),38.7 µM (inactive),25.5 µM (inactive),35.3 µM (inactive),28 µM (inactive),33.6 µM,30.3 µM (inactive),22.8 µM (inactive),34 µM (inactive)
Cc1ccc(NC(=S)N/N=C2\C(=O)Nc3ccccc32)cc1,4.76 µM (inactive),94 µM (inactive),> 100 µM (inactive),> 100 µM (inactive),> 100 µM (inactive),> 100 µM (inactive),> 100 µM (inactive),> 100 µM (inactive),> 100 µM (inactive),49.9 µM (inactive),> 100 µM (inactive),> 100 µM (inactive),> 100 µM (inactive),> 100 µM (inactive),> 100 µM (inactive),> 100 µM (inactive),> 100 µM,> 100 µM (inactive),51.6 µM (inactive),> 100 µM (inactive)
C[C@@H]1C[C@@]2(O[C@@H]2C)C(=O)O[C@@H]2CCN3CC=C(COC(=O)[C@]1(C)O)[C@H]23,> 100 µM (inactive),> 100 µM (inactive),> 100 µM (inactive),> 100 µM (inactive),> 100 µM (inactive),> 100 µM (inactive),> 100 µM (inactive),> 100 µM (inactive),> 100 µM (inactive),> 100 µM (inactive),> 100 µM (inactive),> 100 µM (inactive),> 100 µM (inactive),> 100 µM (inactive),> 100 µM (inactive),> 100 µM (inactive),> 100 µM,> 100 µM (inactive),> 100 µM (inactive),> 100 µM (inactive)
O=C(C[C@@H]1NCCC[C@H]1O)Cn1cnc2cc(Br)c(Cl)cc2c1=O,0.0274 µM (active),0.0178 µM (active),0.0458 µM (active),0.0583 µM (active),0.033 µM (active),< 0.01 µM (active),0.0216 µM (active),0.0138 µM (active),< 0.0176 µM (active),0.024 µM (active),0.0182 µM (active),0.0165 µM (active),0.0252 µM (active),< 0.0147 µM (active),–,0.0266 µM (active),0.0276 µM,0.0186 µM (active),0.0327 µM (active),0.0195 µM (active)
O=C(O)CC1C(=O)OC2C3COC(=O)c4cc(O)c(O)c(O)c4-c4c(cc(O)c(O)c4O)C(=O)OC2C(OC(=O)c2cc(O)c(O)c4c2C1C(O)C(=O)O4)C(OC(=O)c1cc(O)c(O)c(O)c1)O3 (stereo not given),95.5 µM (inactive),27.7 µM (inactive),> 100 µM (inactive),17.3 µM (inactive),7.43 µM (inactive),17.5 µM (inactive),36.4 µM (inactive),24.1 µM (inactive),18 µM (inactive),27.8 µM (inactive),18.5 µM (inactive),35.1 µM (inactive),23.9 µM (inactive),15.9 µM (inactive),–,27.3 µM (inactive),17.5 µM,37.9 µM (inactive),> 100 µM (inactive),49.3 µM (inactive)
CS(=O)(=O)Nc1ccc2c(c1)N(S(C)(=O)=O)CC2COS(C)(=O)=O (stereo not given),> 100 µM (inactive),–,> 100 µM (inactive),24.6 µM (inactive),25.2 µM (inactive),> 100 µM (inactive),52.4 µM (inactive),> 100 µM (inactive),34.6 µM (inactive),58.7 µM (inactive),31 µM (inactive),> 100 µM (inactive),25.8 µM (inactive),19.7 µM (inactive),> 100 µM (inactive),32.5 µM (inactive),> 100 µM,76 µM (inactive),85.9 µM (inactive),45.1 µM (inactive)
COC(=O)c1ccc(Oc2nc3ccc(C(F)(F)F)cc3nc2-c2ccccc2)cc1,> 100 µM (inactive),–,> 100 µM (inactive),> 100 µM (inactive),> 100 µM (inactive),> 100 µM (inactive),60.8 µM (inactive),> 100 µM (inactive),> 100 µM (inactive),> 100 µM (inactive),> 100 µM (inactive),> 100 µM (inactive),> 100 µM (inactive),94.6 µM (inactive),> 100 µM (inactive),66.4 µM (inactive),> 100 µM,> 100 µM (inactive),> 100 µM (inactive),> 100 µM (inactive)
COc1ccc2nc(NC(=O)/C(C#N)=C/c3ccccc3)sc2c1,66.7 µM (inactive),> 54.1 µM (inactive),44.3 µM (inactive),31 µM (inactive),9.35 µM (inactive),40.6 µM (inactive),23.5 µM (inactive),34.8 µM (inactive),18.4 µM (inactive),55.6 µM (inactive),44.9 µM (inactive),48.3 µM (inactive),50.1 µM (inactive),15.2 µM (inactive),23.1 µM (inactive),27.5 µM (inactive),24.7 µM,37.6 µM (inactive),37.3 µM (inactive),> 67.3 µM (inactive)
CC12O[C@]3([C@H](C(=O)N4CCOC43C)[C@H]1Cl)[C@H]1O[C@H]12 (stereo not given in full),> 100 µM (inactive),> 100 µM (inactive),> 100 µM (inactive),> 100 µM (inactive),> 100 µM (inactive),> 100 µM (inactive),98.6 µM (inactive),> 100 µM (inactive),> 100 µM (inactive),> 100 µM (inactive),> 100 µM (inactive),24.6 µM (inactive),> 100 µM (inactive),> 100 µM (inactive),> 100 µM (inactive),> 100 µM (inactive),> 100 µM,> 100 µM (inactive),> 100 µM (inactive),–
c1ccc2c(c1)-c1ccccc1C2NC1=NCCO1,24.9 µM (inactive),17.2 µM (inactive),15.6 µM (inactive),28.5 µM (inactive),26.5 µM (inactive),33.7 µM (inactive),32.8 µM (inactive),11.8 µM (inactive),23.1 µM (inactive),31.4 µM (inactive),28.1 µM (inactive),18.9 µM (inactive),31.3 µM (inactive),25.6 µM (inactive),20.5 µM (inactive),29.4 µM (inactive),9.4 µM,25.2 µM (inactive),18.2 µM (inactive),34.1 µM (inactive)

# Reference: ChEMBL document CHEMBL1201862, “PubChem BioAssay data set” (2004)
